Read-outs that look alike come from different tables or passages of the source.
Assay: Photodegradation of riboflavin preparations under UV irradiation (254/365 nm), first order kinetics
Format: physicochemical
Settings: for half-life: aqueous solution of free riboflavin under UV irradiation
Procedure: At time intervals a known amount of the solution or suspension was diluted with double distilled water and the absorbance or fluorescence measured.
In the case of the liposome suspensions liposomal pellets were produced, solubilised with a 10% solution of Triton-X-100 (RTM) and then diluted and measured. The entrapment and degradation of riboflavin was calculated from the absorbance readings at 444 nm, absorbance at this wavelength not interfering with the absorbance of Triton-X-100.
The photodegradation of riboflavin caused by UV irradiation follows first order kinetics and is given by the following equation: […]
where C0 is the initial concentration of riboflavin, C is the concentration of riboflavin after t min of irradiation and k is the first order photodegradation rate constant.
The graphic representation of Equation (2) is linear and the slope of the line gives the photodegradation rate constant k.
The increase in stability was expressed by the stabilization ratio. (k0/k), where k0 is the photodegradation constant of free riboflavin in aqueous solution and k the photodegradation rate constant of the various preparations.
Riboflavin gamma-cyclodextrin inclusion complexes were entrapped in DRV incorporating a light absorbing agent or antioxidant in their lipid phase selected from: oil Red 0, oxybenzone, deoxybenzone and beta-carotene or combinations thereof. […] As in the previous examples this degradation followed first order kinetics represented by the equations given earlier.
In order to determine the extent of this reduction and to determine whether during the photodegradation of riboflavin the same concentration of oil Red 0 caused different reductions in fluorescence, solutions containing known amounts of riboflavin and oil Red 0 solubilised in water using Triton-X-100 were prepared and their fluorescence measured.

half-life (aqueous solution, irradiation, read-out: half life of riboflavin in aqueous solution on irradiation): ~30 min
half-life (free riboflavin, UV irradiation, read-out: half life of riboflavin): 30 min
rate of decomposition of riboflavin in aqueous solution on irradiation (aqueous solution, irradiation): 0.024 min⁻¹
k × 10^3, rate constant for the photodegradation of riboflavin (values are k × 10^3, UV lamp 254/365 nm, 3 cm, 24° C.): 24(k °) min^−1
SMILES: Cc1cc2nc3c(=O)[nH]c(=O)nc-3n(C[C@H](O)[C@H](O)[C@H](O)CO)c2cc1C [Riboflavin, riboflavin]

From patent publication US6379697B1, “Stabilization of photosensitive materials” (The Secretary of State for Defence in Her Britannic …, priority 1994, dated 2002)
